Our source for the Activity values is ChEMBL document CHEMBL3797167, “Development of a peptide-based inducer of nuclear receptors degradation” (Bioorg Med Chem Lett, 2016).

What all share (format): cell-based
Data set [1] deals with T1, Aryl hydrocarbon receptor (Homo sapiens, UniProt P35869).
T1 sequence (P35869 whole entry): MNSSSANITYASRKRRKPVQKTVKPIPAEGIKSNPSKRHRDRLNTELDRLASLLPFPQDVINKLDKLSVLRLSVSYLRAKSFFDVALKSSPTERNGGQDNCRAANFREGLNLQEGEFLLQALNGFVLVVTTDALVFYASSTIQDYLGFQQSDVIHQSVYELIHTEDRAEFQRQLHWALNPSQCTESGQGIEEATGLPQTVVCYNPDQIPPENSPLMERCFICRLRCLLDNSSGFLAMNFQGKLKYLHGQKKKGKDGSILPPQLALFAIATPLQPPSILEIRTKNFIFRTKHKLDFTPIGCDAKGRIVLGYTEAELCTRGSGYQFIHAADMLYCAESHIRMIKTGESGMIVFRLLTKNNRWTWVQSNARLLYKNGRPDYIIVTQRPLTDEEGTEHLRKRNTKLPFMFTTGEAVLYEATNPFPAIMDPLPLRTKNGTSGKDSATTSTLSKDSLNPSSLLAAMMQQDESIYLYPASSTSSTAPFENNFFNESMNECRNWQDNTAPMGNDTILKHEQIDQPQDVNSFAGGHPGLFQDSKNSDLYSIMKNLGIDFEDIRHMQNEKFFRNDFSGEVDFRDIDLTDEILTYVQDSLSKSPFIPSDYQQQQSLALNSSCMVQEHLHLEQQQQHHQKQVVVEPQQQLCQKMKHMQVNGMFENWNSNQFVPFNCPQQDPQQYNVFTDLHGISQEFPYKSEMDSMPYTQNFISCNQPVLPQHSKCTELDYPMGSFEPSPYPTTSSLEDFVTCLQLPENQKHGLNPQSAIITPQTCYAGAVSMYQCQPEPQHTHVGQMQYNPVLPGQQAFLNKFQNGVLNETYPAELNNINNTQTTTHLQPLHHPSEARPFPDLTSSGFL
The data set is described as follows: Induction of AhR degradation in human MCF7 cells at 10 to 20 uM after 6 hrs by Western blot analysis. To be noted: mcf7, 6 h. A general note: Immunoblotting shows a protein as a band on a membrane.

Data set [2] has as its target T1, Aryl hydrocarbon receptor. Briefly: Induction of AhR degradation in human MCF7 cells assessed as AhR/lamin ratio level at 20 uM after 6 hrs by Western blot analysis (reference value: 100%). The following applies: mcf7, 6 h.
In data set [3] the target is Baculoviral IAP repeat-containing protein 2 (Homo sapiens) (UniProt Q13490). The data set is described as follows: Induction of cIAP1 degradation in human MCF7 cells at 10 to 20 uM after 6 hrs by Western blot analysis in presence of MG132.
Sequence of Baculoviral IAP repeat-containing protein 2 (Homo sapiens) (Q13490 whole entry): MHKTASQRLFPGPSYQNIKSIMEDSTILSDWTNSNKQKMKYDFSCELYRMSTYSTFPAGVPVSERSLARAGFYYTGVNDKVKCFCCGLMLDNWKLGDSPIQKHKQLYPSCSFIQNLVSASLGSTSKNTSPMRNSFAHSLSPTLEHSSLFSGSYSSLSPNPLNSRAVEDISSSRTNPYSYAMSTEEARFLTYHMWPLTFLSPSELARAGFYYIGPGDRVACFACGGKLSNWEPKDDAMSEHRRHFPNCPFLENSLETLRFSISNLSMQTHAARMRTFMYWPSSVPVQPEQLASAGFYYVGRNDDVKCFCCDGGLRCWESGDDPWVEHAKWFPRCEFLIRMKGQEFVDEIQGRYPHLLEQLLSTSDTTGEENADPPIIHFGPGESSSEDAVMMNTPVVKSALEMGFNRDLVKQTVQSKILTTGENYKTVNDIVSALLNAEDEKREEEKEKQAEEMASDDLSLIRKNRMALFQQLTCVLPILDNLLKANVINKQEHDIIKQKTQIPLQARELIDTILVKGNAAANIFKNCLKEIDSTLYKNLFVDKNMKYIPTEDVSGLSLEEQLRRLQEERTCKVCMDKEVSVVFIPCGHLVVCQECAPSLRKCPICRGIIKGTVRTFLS
The target of data set [4] is T2, Androgen receptor (Homo sapiens) (UniProt P10275).
T2 sequence (whole entry): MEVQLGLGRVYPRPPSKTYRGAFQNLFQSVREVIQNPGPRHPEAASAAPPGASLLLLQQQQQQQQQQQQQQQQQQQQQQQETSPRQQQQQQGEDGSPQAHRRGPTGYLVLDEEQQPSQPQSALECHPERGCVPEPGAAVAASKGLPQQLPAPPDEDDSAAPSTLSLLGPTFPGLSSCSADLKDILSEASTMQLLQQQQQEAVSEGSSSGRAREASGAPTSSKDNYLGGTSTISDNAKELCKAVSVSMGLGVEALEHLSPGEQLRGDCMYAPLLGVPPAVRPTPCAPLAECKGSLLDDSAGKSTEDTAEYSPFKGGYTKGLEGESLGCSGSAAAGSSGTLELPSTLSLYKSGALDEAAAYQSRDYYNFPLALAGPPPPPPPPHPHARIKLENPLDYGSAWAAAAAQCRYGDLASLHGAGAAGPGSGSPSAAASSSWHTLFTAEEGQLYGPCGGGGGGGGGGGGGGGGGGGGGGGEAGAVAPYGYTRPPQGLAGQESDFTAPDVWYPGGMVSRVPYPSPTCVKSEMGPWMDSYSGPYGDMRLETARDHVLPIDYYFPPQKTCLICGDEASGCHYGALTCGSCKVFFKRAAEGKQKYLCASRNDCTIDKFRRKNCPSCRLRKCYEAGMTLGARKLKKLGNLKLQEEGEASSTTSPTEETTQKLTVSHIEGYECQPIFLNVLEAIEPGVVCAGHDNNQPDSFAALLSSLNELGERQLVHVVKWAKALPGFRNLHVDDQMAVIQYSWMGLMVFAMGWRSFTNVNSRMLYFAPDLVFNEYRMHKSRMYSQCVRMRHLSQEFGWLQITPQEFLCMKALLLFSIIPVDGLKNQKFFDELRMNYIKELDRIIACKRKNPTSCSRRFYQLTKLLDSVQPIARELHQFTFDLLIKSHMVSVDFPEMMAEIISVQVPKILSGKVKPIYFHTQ
The data set is described as follows: Induction of AR degradation in human MCF7 cells assessed as AR/lamin ratio level at 20 uM after 6 hrs by Western blot analysis (reference value: 100%).

The target of data set [5] is T3, Estrogen receptor (Homo sapiens) (UniProt P03372).
T3 sequence (whole entry): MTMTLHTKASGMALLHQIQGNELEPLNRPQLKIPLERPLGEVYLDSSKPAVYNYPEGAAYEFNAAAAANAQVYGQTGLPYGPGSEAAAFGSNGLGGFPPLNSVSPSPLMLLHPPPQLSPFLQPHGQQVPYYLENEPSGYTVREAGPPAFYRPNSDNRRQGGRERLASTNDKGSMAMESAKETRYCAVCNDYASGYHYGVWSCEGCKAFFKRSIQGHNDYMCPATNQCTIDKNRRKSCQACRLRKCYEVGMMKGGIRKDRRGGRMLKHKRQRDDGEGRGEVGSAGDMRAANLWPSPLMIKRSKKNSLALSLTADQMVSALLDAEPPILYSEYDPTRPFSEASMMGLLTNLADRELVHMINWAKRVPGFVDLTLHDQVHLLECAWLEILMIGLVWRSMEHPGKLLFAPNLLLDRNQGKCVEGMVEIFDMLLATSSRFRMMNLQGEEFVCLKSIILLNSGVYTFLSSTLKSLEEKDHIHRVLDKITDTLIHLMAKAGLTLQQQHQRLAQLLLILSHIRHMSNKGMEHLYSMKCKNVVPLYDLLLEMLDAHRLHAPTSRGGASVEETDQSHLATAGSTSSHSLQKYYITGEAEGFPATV
Briefly: Induction of ERalpha degradation in human MCF7 cells assessed as ERalpha/lamin ratio level at 20 uM after 6 hrs by Western blot analysis (reference value: 100%).

For data set [6], the system named is MCF7. The data set is described as follows: Cytotoxicity against human MCF7 cells at 20 uM after 6 hrs. The following applies: mcf7, 6 h.
In data set [7] the target is T2, Androgen receptor (Homo sapiens). Briefly: Induction of AR degradation in human MCF7 cells at 10 to 20 uM after 6 hrs by Western blot in presence of MG132.
For data set [8], the target named is T3, Estrogen receptor (Homo sapiens). Briefly: Induction of ERalpha degradation in human MCF7 cells at 10 to 20 uM after 6 hrs by Western blot analysis.
In data set [9] the target is T1, Aryl hydrocarbon receptor. Briefly: Induction of AhR degradation in human MCF7 cells assessed as AhR/lamin ratio level at 10 uM after 6 hrs by Western blot analysis (reference value: 100%). To be noted: mcf7, 6 h.
The target in data set [10] is T3, Estrogen receptor (Homo sapiens). Briefly: Induction of ERalpha degradation in human MCF7 cells at 10 to 20 uM after 6 hrs by Western blot analysis in presence of MG132.
For data set [11], the target named is T2, Androgen receptor (Homo sapiens). Briefly: Induction of AR degradation in human MCF7 cells assessed as AR/lamin ratio level at 10 uM after 6 hrs by Western blot analysis (reference value: 100%).
The target is the same in data set [12]. The data set is described as follows: Induction of AR degradation in human MCF7 cells at 10 to 20 uM after 6 hrs by Western blot analysis.
The target in data set [13] is T3, Estrogen receptor (Homo sapiens). Briefly: Induction of ERalpha degradation in human MCF7 cells assessed as ERalpha/lamin ratio level at 10 uM after 6 hrs by Western blot analysis (reference value: 100%).

The source made the active and inactive calls. The calls are words filed in the database; no cut-off is given here.

In the case of `CC[C@@H](C)[C@@H]1NC(=O)[C@H](NC(=O)[C@H](N)CCCCNC(=O)CCNC(=O)CCNC(=O)CCNC(=O)CCNC(=O)CCNC(=O)[C@H](NC(=O)[C@H]2CCCN2C(=O)[C@@H](NC(=O)[C@@H](C)NC)C2CCCCC2)C(c2ccccc2)c2ccccc2)CSSC[C@@H](C(=O)N[C@@H](CCCNC(=N)N)C(=O)N[C@@H](CC(C)(C)C)C(=O)N[C@@H](CC(C)C)C(=O)N[C@@H](CCC(N)=O)C(=O)NCC(=O)NCC(=O)NCC(=O)N[C@@H](CCCNC(=N)N)C(=O)N[C@@H](CCCNC(=N)N)C(=O)N[C@@H](CCCNC(=N)N)C(=O)N[C@@H](CCCNC(=N)N)C(=O)N[C@@H](CCCNC(=N)N)C(=O)N[C@@H](CCCNC(=N)N)C(=O)N[C@H](CCCNC(=N)N)C(N)=O)NC(=O)[C@H](CC(C)C)NC1=O`, the Activity entry in [1] is “Not Active”; in data set [2] it was 98%; in data set [4], 54%; in data set [5] it was 64%; in data set [6] it was “Non-toxic”; in [9], 109%. The Activity was 77% in data set [11] and 82% in [13]. The outcome in data set [3], in [7] and in [10] was inactive. In addition, the outcome in [8] and in [12] was Active.
